Assay [1] deals with PIK3CA (human) (UniProt P42336). As to the kind of experiment: Assessment of PIK3CA Kinase Activity.
For assay [2], the target named is PIK3CG (human) (UniProt P48736). As to the kind of experiment: Assessment of PIK3CG Kinase Activity.

Here are results for 29 compounds from the Kinase Knowledgebase extract (Sharma et al. 2016).

pIC50: −log10 of the molar value.

Usually pIC50 stands for the IC50 on a negative log10 scale, so that one unit is a factor of ten. Low values mean a large IC50, high ones a small IC50.

PIK3CG (human), sequence (P48736 whole entry, looked up): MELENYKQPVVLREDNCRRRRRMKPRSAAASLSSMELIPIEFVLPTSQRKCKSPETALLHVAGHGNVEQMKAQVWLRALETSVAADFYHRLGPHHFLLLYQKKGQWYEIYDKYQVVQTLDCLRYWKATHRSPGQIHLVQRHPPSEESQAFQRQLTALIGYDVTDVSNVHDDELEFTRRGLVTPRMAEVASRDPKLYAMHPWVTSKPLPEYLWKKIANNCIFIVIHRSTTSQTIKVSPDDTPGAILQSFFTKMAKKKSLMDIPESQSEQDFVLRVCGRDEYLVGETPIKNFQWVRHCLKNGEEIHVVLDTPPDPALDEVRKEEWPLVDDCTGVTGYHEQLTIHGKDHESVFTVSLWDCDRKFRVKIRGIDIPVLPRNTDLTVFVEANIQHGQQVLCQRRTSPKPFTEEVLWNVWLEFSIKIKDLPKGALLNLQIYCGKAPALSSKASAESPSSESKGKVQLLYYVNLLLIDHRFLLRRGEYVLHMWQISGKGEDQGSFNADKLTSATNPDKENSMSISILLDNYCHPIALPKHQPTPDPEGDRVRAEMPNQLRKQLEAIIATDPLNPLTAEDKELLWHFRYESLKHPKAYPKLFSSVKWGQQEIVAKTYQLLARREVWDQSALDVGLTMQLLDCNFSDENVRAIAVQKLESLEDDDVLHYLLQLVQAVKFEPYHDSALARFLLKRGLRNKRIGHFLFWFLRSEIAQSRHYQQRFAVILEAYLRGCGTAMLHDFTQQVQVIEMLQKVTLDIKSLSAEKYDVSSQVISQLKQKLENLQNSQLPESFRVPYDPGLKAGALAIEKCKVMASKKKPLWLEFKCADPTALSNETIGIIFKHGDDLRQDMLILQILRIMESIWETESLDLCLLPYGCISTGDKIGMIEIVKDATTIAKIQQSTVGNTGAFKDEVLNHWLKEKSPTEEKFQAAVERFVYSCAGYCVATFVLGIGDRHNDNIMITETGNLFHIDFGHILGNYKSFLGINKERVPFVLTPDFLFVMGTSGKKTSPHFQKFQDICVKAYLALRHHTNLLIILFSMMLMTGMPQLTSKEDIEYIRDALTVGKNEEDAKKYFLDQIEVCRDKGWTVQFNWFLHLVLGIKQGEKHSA
PIK3CA (human), sequence (P42336 whole entry, looked up): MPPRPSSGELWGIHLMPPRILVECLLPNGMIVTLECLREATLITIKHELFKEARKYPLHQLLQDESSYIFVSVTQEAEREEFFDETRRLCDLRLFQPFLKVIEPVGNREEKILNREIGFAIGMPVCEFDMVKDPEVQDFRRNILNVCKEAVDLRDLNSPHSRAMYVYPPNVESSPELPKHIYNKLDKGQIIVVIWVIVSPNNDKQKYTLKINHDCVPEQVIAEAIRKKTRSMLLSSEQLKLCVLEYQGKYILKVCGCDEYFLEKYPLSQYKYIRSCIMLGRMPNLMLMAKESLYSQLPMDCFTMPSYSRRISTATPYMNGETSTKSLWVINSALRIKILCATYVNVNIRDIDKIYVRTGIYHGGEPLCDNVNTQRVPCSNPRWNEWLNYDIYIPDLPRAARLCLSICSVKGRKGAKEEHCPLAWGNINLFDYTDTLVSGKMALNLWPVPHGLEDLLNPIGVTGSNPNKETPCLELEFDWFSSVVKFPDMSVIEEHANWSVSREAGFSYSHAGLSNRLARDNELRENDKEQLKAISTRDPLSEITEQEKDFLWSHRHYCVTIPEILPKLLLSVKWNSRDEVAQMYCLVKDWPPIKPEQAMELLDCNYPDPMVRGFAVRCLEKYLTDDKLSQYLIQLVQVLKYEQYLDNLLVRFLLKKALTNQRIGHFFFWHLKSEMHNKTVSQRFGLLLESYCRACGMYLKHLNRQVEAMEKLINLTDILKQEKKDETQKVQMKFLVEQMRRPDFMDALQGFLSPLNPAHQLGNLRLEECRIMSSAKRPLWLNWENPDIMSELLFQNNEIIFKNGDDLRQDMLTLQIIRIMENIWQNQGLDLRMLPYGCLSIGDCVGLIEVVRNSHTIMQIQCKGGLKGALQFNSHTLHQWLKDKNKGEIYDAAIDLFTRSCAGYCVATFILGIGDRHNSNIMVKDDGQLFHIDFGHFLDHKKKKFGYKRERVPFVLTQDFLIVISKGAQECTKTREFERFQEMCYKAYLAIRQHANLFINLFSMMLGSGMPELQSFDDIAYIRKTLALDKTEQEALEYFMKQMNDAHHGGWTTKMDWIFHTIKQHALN

For the compound `CC(C)N1CCc2c(nc(-c3ccc(NC(=O)Nc4ccncc4)cc3)nc2N2C3CCC2COC3)C1`, in assay [1], the pIC50 is 5.61.
`CCN1CCc2c(nc(-c3ccc(NC(=O)Nc4ccc(C(F)(F)F)cc4)cc3)nc2N2C3CCC2COC3)C1`: the negative logarithm of the IC50 (pIC50) in assay [1] was 5.52.
Take `CNC(=O)Nc1ccc(-c2nc3c(c(N4CC5CCC(C4)O5)n2)CCN(S(=O)(=O)c2ccc(Cl)cc2)C3)cc1`: in assay [2], the pIC50 is 5.51.
`CNC(=O)Nc1ccc(-c2nc3c(c(N4CC5CCC(C4)O5)n2)CCN(C(=O)NC2CCCCC2)C3)cc1` had a negative logarithm of the IC50 (pIC50) in assay [2] of 6.22.
On the same count and under the same terms, under `CNC(=O)Nc1ccc(-c2nc3c(c(N4CC5CCC(C4)O5)n2)CCN(S(=O)(=O)c2ccc(F)cc2)C3)cc1` stands 6.22.
As for `CCN1CCc2c(nc(-c3ccc(NC(=O)Nc4ccc(C(=O)O)cc4)cc3)nc2N2C3CCC2COC3)C1`, the pIC50 in assay [1] is 5.38.
For the compound `CN(C)C1CCN(C(=O)c2ccc(NC(=O)Nc3ccc(-c4nc5c(c(N6C7CCC6COC7)n4)CCN(S(C)(=O)=O)C5)cc3)cc2)CC1`, the pIC50 in assay [1] was 5.88; in assay [2] it was under 5.00.
As to `CNC(=O)Nc1ccc(-c2nc3c(c(N4CC5CCC(C4)O5)n2)CCN(S(=O)(=O)N(C)C)C3)cc1`, in assay [2], the pIC50 is 6.72.
With `O=C(Nc1ccc(-c2nc3c(c(N4CC5CCC(C4)O5)n2)CCNC3)cc1)Nc1cccnc1`, the values for the pIC50 in assay [1] and in assay [2] were 6.11 and 4.85, respectively.
Turning to `CCN1CCc2c(nc(-c3ccc(NC(=O)Nc4ccc(C(=O)N5CCCC5)cc4)cc3)nc2N2C3CCC2COC3)C1`, the pIC50 in assay [1] is 6.66.
Same read-out and setting: then `CN(C)CC(=O)N1CCc2c(nc(-c3ccc(NC(=O)Nc4ccncc4)cc3)nc2N2C3CCC2COC3)C1`, with 6.09; and `O=C(Nc1ccncc1)Nc1ccc(-c2nc3c(c(N4CC5CCC(C4)O5)n2)CCN(CCF)C3)cc1`, with 6.48.
Turning to `CN(C)C1CCN(C(=O)c2ccc(NC(=O)Nc3ccc(-c4nc5c(c(N6CCOCC6)n4)CNC5)cc3)cc2)CC1`, the pIC50 in assay [1] was 8.05; in assay [2], 7.13.
In the case of `CC(C)N1CCc2c(nc(-c3ccc(NC(=O)Nc4ccncc4)cc3)nc2N2CC3CCC(C2)O3)C1`, in assay [1], the pIC50 was 5.69.
For `CS(=O)(=O)N1CCc2c(nc(-c3ccc(NC(=O)Nc4cccnc4)cc3)nc2N2CCOCC2)C1`, the pIC50 in assay [1] was 8.46; in assay [2] it was 7.36.
With `CNC(=O)Nc1ccc(-c2nc3c(c(N4C5CCC4COC5)n2)CCN(S(C)(=O)=O)C3)cc1`, the pIC50 in assay [1] was 6.24; in assay [2] it was under 5.00.
For `CNC(=O)Nc1ccc(-c2nc3c(c(N4C5CCC4COC5)n2)CN(S(C)(=O)=O)C3)cc1`, in that order: 8.40 and 7.15.
The matching figures for `CNC(=O)Nc1ccc(-c2nc3c(c(N4CC5CCC(C4)O5)n2)CCNC3)cc1`: 5.57 and under 5.00.
The matching figures for `CS(=O)(=O)N1CCc2c(nc(-c3ccc(NC(=O)Nc4cccnc4)cc3)nc2N2CC3CCC(C2)O3)C1`: 6.97 and 5.91.
With `CNC(=O)Nc1ccc(-c2nc3c(c(N4C5CCC4COC5)n2)CNC3)cc1`, the figures for the pIC50 in assay [1] and in assay [2] were 6.54 and 5.14, respectively.
The matching figures for `CN(C)C1CCN(C(=O)c2ccc(NC(=O)Nc3ccc(-c4nc5c(c(N6CCOCC6)n4)CN(S(C)(=O)=O)C5)cc3)cc2)CC1`: 9.00 and 8.10.
In the case of `COC(=O)N1CCc2c(nc(-c3ccc(NC(=O)Nc4ccncc4)cc3)nc2N2C3CCC2COC3)C1`, the pIC50 in assay [1] was 6.42.
With `CNC(=O)Nc1ccc(-c2nc3c(c(N4CCOCC4)n2)CN(S(C)(=O)=O)C3)cc1`, the pIC50 in assay [1] is 9.00; in assay [2] it was 7.64.
For `CN1CCc2c(nc(-c3ccc(NC(=O)Nc4cccnc4)cc3)nc2N2CC3CCC(C2)O3)C1`, in that order: 6.17 and 5.02.
For `CNC(=O)Nc1ccc(-c2nc3c(c(N4CC5CCC(C4)O5)n2)CCN(S(C)(=O)=O)C3)cc1`, in that order: 6.25 and under 5.00.
`CN1CCN(c2ccc(NC(=O)Nc3ccc(-c4nc5c(c(N6C7CCC6COC7)n4)CCN(CC(F)(F)F)C5)cc3)cc2)CC1` showed a pIC50 in assay [1] of 5.87.
Same read-out and setting: then `CN1CCc2c(nc(-c3ccc(NC(=O)Nc4ccncc4)cc3)nc2N2C3CCC2COC3)C1`, with 5.56; and `CCN1CCc2c(nc(-c3ccc(NC(=O)Nc4ccc(C(=O)N(C)C)cc4)cc3)nc2N2C3CCC2COC3)C1`, with 6.26.
Take `CN1CCc2c(nc(-c3ccc(NC(=O)Nc4cccnc4)cc3)nc2N2C3CCC2COC3)C1`: the figures for the pIC50 in assay [1] and in assay [2] were 5.95 and 4.92, respectively.
